From PMC8117417, “Novel Trifluoromethyl Pyrimidinone Compounds With Activity Against Mycobacterium tuberculosis” (Frontiers in Chemistry, 2021) come the findings set out here.

For test [1], the system named is M. tuberculosis H37Rv. The test is described as follows: Minimum inhibitory concentration (IC90) against fluorescent M. tuberculosis in liquid culture. The settings on record: for IC90: read-out: MTB IC90, concentration required to inhibit M. tuberculosis growth by 90%, aerobic culture, 5 days, 7H9-OADC-Tw.
The subject of test [2] is HepG2 human liver cells. Kind of test: Cytotoxicity against HepG2 cells (CellTiter-Glo). The class given is cell-based. The settings on record: concentration required to inhibit growth of HepG2 cells by 50%, 72 h exposure. Here is the method:
Cytotoxicity was measured after 72 h of compound exposure at 37°C and 5% CO2 using CellTiter-Glo (Promega).
For orientation: Cellular ATP, detected with luciferase, serves as a proxy for viable cell number.

Where [3] appears, read: MTB IC90 assay, Figure 1 primary hits and reference drugs in this assay.

Converted amounts (≈) assume the structure as drawn. Where only a bound is given, the exact number is not on record here.

In the case of `O=c1cc(C(F)(F)F)nc(-c2cc(CCc3ccc(O)cc3)ccn2)[nH]1` [Compound 4], the minimal inhibitory concentration (MIC) – broadly, the least concentration at which growth counts as inhibited – in test [1] (setting [3]) turned out to be 4.2 ± 2.1 µM (≈ 1.52 µg/mL).

With `O=c1cc(C(F)(F)F)nc(-c2ncccc2F)[nH]1` [Compound 26, 2-(3-Fluoropyridin-2-yl)-6-(Trifluoromethyl)Pyrimidin-4(3H)-One], in test [2] (Homo sapiens, HepG2, 72 h), the IC50 (as a rule, the concentration at which inhibition is half-maximal) was over 100 µM. In test [1], the concentration for an effect of 90% (IC90) (commonly the point of the concentration-response curve where the effect stands at 90%) was over 20 µM.

`CCCc1c(C(F)(F)F)nc(-c2ccccn2)[nH]c1=O` [Compound 13] gave an IC50 in test [2] (Homo sapiens, HepG2, 72 h) of 12 ± 1.4 µM. In addition, the minimal inhibitory concentration (MIC) in test [1] (setting [3]) is 10 ± 1.3 µM (≈ 2.83 µg/mL). The 90% effect concentration (IC90) in test [1] was 10 ± 1.3 µM.

`Cc1nc(-c2ccccn2)[nH]c(=O)c1C` [Compound 49, 5,6-Dimethyl-2-(Pyridin-2-yl)Pyrimidin-4(3H)-One] returned an IC50 in test [2] (Homo sapiens, HepG2, 72 h) of 88 ± 6.9 µM. For the same compound, the IC90 in test [1] was over 20 µM.

`O=c1cc(C(F)(F)F)nc(-c2ccccc2OC(F)(F)F)[nH]1` [Compound 25] came in with an IC50 in test [2] (Homo sapiens, HepG2, 72 h) of over 100 µM. Further, the IC90 in test [1] was over 20 µM.

In test [2] (Homo sapiens, HepG2, 72 h), `N#Cc1ccc(OCc2ccnc(-c3nc(C(F)(F)F)cc(=O)[nH]3)c2)cc1` [Compound 15] showed a concentration for half-maximal inhibition (IC50) of 7.4 ± 1.6 µM. The same compound registered a minimal inhibitory concentration (MIC) in test [1] (setting [3]) of 5.3 ± 1.3 µM (≈ 1.97 µg/mL). The IC90 in test [1] turned out to be 5.3 ± 1.3 µM.

For “5-Cyclopentyl-2-(Pyridin-2-yl)-6-(Trifluoromethyl)Pyrimidin-4(3H)-One [Compound 57]”, the midpoint of inhibition in test [2], the IC50, lay at 5.9 ± 0.57 µM. Moreover, the IC90 in test [1] was 10 ± 2.6 µM.

In turn, `CC(C)Cc1c(C(F)(F)F)nc(-c2ccccn2)[nH]c1=O` [Compound 14] showed an IC50 in test [2] (Homo sapiens, HepG2, 72 h) of 7.5 ± 1.3 µM. The MIC in test [1] (setting [3]) is 5.8 ± 1.3 µM (≈ 1.72 µg/mL). Also, the IC90 in test [1] was 5.8 ± 1.3 µM.

Consider `O=c1cc(C(F)(F)F)nc(-c2ccccn2)[nH]1` [Compound 16, 2-(Pyridin-2-yl)-6-(Trifluoromethyl)Pyrimidin-4(3H)-One], for which the IC50 in test [2] (Homo sapiens, HepG2, 72 h) is over 100 µM. Besides, the “HepG2 IC50” value in test [2] was “lacked cytotoxicity”. For the same compound, in test [1], the IC90 stood at 4.9 ± 0.79 µM.

For `CCOC(=O)CCCc1c(C(F)(F)F)nc(-c2ccccn2)[nH]c1=O` [Compound 12], the concentration for half-maximal inhibition (IC50) in test [2] (Homo sapiens, HepG2, 72 h) is 10 ± 4.3 µM. This compound registered an MIC in test [1] (setting [3]) of 3.1 ± 0.57 µM (≈ 1.1 µg/mL). Further, the IC90 in test [1] was found to be 3.1 ± 0.57 µM.

As for `O=c1cc(C(F)(F)F)nc(-c2cc(OCc3ccccc3)ccn2)[nH]1` [Compound 6], the midpoint of inhibition in test [2] (Homo sapiens, HepG2, 72 h), the IC50, lay at 2.5 ± 0.78 µM. The MIC in test [1] (setting [3]) was 1.3 ± 0.21 µM (≈ 0.451 µg/mL). In addition, the IC90 in test [1] was 1.3 ± 0.21 µM.

Take `O=C1c2ccccc2-c2nn3c(=O)cc(C(F)(F)F)nc3nc21` [Compound 1]: the MIC in test [1] (setting [3]) came out at 3.1 ± 0.49 µM (≈ 0.986 µg/mL).

Consider `COc1c(C(F)(F)F)nc(-c2ccccn2)[nH]c1=O` [Compound 56, 5-Methoxy-2-(Pyridin-2-yl)-6-(Trifluoromethyl)Pyrimidin-4(3H)-One], for which, in test [2] (Homo sapiens, HepG2, 72 h), the IC50 stood at 5 ± 0.82 µM. In test [1], the IC90 was 6.1 ± 0.26 µM.

On to `O=c1[nH]c(-c2ccccn2)nc(C(F)(F)F)c1CC1CC1` [Compound 11], for which the IC50 in test [2] (Homo sapiens, HepG2, 72 h) came out at 11 ± 4.7 µM. The compound further showed an MIC in test [1] (setting [3]) of 7.9 ± 2.1 µM (≈ 2.33 µg/mL). In test [1], the IC90 came out at 7.9 ± 2.1 µM.

As to `Cc1c(C(F)(F)F)nc(-c2cc(COc3ccc(O)cc3)ccn2)[nH]c1=O` [Compound 3], half-maximal inhibition in test [2] (Homo sapiens, HepG2, 72 h) (IC50) was put at 7.4 ± 0.28 µM. Further, the MIC in test [1] (setting [3]) was determined as 7.6 ± 0.85 µM (≈ 2.87 µg/mL). Also, the IC90 in test [1] stood at 7.6 ± 0.85 µM.

In test [2] (Homo sapiens, HepG2, 72 h), `N#Cc1ccc(COc2ccnc(-c3nc(C(F)(F)F)cc(=O)[nH]3)c2)cc1` [Compound 9] yielded an IC50 of 6.1 ± 2.1 µM. In test [1] (setting [3]), this compound returned an MIC of 3.7 ± 0.85 µM (≈ 1.38 µg/mL). Also, the IC90 in test [1] was determined as 3.7 ± 0.85 µM.

Regarding `CC[C@@H](CO)NCCN[C@@H](CC)CO` [ethambutol, reference compound], the MIC in test [1] (setting [3]) came out at 3.3 ± 0.4 µM (≈ 0.674 µg/mL).

`CO[C@H]1/C=C/O[C@@]2(C)Oc3c(C)c(O)c4c(O)c(c(/C=N/N5CCN(C)CC5)c(O)c4c3C2=O)NC(=O)/C(C)=C\C=C\[C@H](C)[C@H](O)[C@@H](C)[C@@H](O)[C@@H](C)[C@H](OC(C)=O)[C@@H]1C` [rifampicin, reference compound]: the minimum inhibitory concentration (MIC) in test [1] (reference drug in this assay) is 0.008 ± 0.0002 µM (≈ 0.00658 µg/mL).

`NNC(=O)c1ccncc1` [isoniazid, reference compound] returned an MIC in test [1] (setting [3]) of 0.6 ± 0.2 µM (≈ 0.0823 µg/mL).
